Data as given in PubChem BioAssay (NCI).
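Following 48 hours of exposure in 96-well plates, responses at five concentrations were used to interpolate endpoints linearly. At the TGI there is no net growth.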

What was measured:
Assay in all cases: NCI tumour cell line growth inhibition, 48 h
[1] = system: HOP-62 NSCLC
[2] = system: OVCAR-3 ovarian
[3] = system: 786-0 renal
[4] = system: SF-268 CNS
[5] = system: HT29 colon
[6] = system: HOP-92 NSCLC
[7] = system: ACHN renal
[8] = system: MDA-MB-231 breast
[9] = system: U251 CNS
[10] = system: MDA-MB-435
[11] = system: IGROV1 ovarian
[12] = system: CCRF-CEM leukemia
[13] = system: SW-620 colon
[14] = system: EKVX NSCLC
[15] = system: BT-549 breast

SMILES	TGI [1]	TGI [2]	TGI [3]	TGI [4]	TGI [5]	TGI [6]	TGI [7]	TGI [8]	TGI [9]	TGI [10]	TGI [11]	TGI [12]	TGI [13]	TGI [14]	TGI [15]
CC1(C)CC(=O)/C(=C/C2CCNC2=S)C(=O)N1 (stereo not given)	> 100 µM	> 100 µM	> 100 µM	> 100 µM	> 100 µM	> 100 µM	> 100 µM	> 100 µM	> 100 µM	> 100 µM	> 100 µM	> 100 µM	> 100 µM	> 100 µM	–
CC1(c2cccc3c2C2(O)C=CC4(CCC32)OCCO4)OCCO1 (stereo not given)	> 100 µM	> 100 µM	> 100 µM	> 100 µM	> 100 µM	–	> 100 µM	–	> 100 µM	–	> 100 µM	> 100 µM	> 100 µM	> 100 µM	–
C=C[C@@H](OCOCC[Si](C)(C)C)[C@@H](CC)OC(CCCOC(=O)C(C)(C)C)OC (stereo not given in full)	> 100 µM	> 100 µM	88.5 µM	> 100 µM	> 100 µM	> 100 µM	> 100 µM	> 100 µM	57.6 µM	> 100 µM	> 100 µM	92.8 µM	70.1 µM	65.4 µM	–
CC(=O)OCCOCNC(=S)N/N=C/c1ccc2ccccc2n1	> 100 µM	> 100 µM	> 100 µM	> 100 µM	> 100 µM	–	> 100 µM	–	> 100 µM	–	> 100 µM	> 100 µM	> 100 µM	> 100 µM	–
COC(=O)C1CC(=O)CCC1c1ccccc1 (stereo not given)	> 100 µM	> 100 µM	> 100 µM	> 100 µM	> 100 µM	> 100 µM	> 100 µM	–	> 100 µM	–	> 100 µM	> 100 µM	> 100 µM	> 100 µM	–
COc1ccc(-c2cc(-c3ccc(Cl)cc3)n(C3OC(CO)C(O)C(O)C3O)c(=S)c2C#N)cc1 (stereo not given)	> 100 µM	–	35.5 µM	> 100 µM	> 100 µM	> 100 µM	> 100 µM	> 100 µM	> 100 µM	> 100 µM	> 100 µM	–	> 100 µM	–	> 100 µM
CC1C2=C(CC(C)(C)CC2=O)NC2=C1C(=O)CC(C)(C)C2	–	> 100 µM	> 100 µM	> 100 µM	> 100 µM	> 100 µM	> 100 µM	–	> 100 µM	–	> 100 µM	> 100 µM	> 100 µM	> 100 µM	> 100 µM
CC(NC(=O)C(OC(=O)C(C)NC(=O)OC(C)(C)C)C(C)C)C(=O)OC(C(=O)O)C(C)C (stereo not given)	> 100 µM	> 100 µM	> 100 µM	> 100 µM	> 100 µM	> 100 µM	> 100 µM	> 100 µM	> 100 µM	> 100 µM	> 100 µM	–	> 100 µM	> 100 µM	> 100 µM
N=C(N)C1CN(CCc2cnc[nH]2)C(=O)NC1=O (stereo not given)	> 100 µM	> 100 µM	> 100 µM	> 100 µM	> 100 µM	> 100 µM	> 100 µM	–	> 100 µM	> 100 µM	> 100 µM	> 100 µM	> 100 µM	> 100 µM	> 100 µM
COc1cccc(/C(CC(O)(C(F)(F)F)C(F)(F)F)=N\N(C)C)c1	> 100 µM	> 100 µM	> 100 µM	> 100 µM	> 100 µM	> 100 µM	> 100 µM	> 100 µM	> 100 µM	> 100 µM	> 100 µM	> 100 µM	> 100 µM	> 100 µM	–
CN(C)/C(N)=N/C(N)=Nc1cccc(Cl)c1	> 100 µM	> 100 µM	> 100 µM	> 100 µM	> 100 µM	–	> 100 µM	> 100 µM	> 100 µM	> 100 µM	77.9 µM	–	> 100 µM	> 100 µM	92.5 µM
CCC(CC)C(=O)OC[n+]1ccc(-c2c(COC(=O)NC(C)C)c(COC(=O)NC(C)C)c3n2CCC3)cc1	> 100 µM	> 100 µM	> 100 µM	–	–	> 100 µM	–	> 100 µM	> 100 µM	–	> 100 µM	> 100 µM	> 100 µM	> 100 µM	> 100 µM
CCCCC1Cc2ccccc2-c2n1c1ccccc1[n+]2C (stereo not given)	> 100 µM	> 100 µM	> 100 µM	> 100 µM	57.8 µM	> 100 µM	> 100 µM	> 100 µM	> 100 µM	> 100 µM	> 100 µM	> 100 µM	> 100 µM	> 100 µM	–
C=CCN1C(=O)CC1N(CC=C)S(=O)(=O)c1ccc(C)cc1 (stereo not given)	–	> 100 µM	> 100 µM	–	> 100 µM	> 100 µM	> 100 µM	–	> 100 µM	> 100 µM	> 100 µM	> 100 µM	> 100 µM	> 100 µM	> 100 µM
C#CCSc1nc(N)c2ncn(C3OC(CO)C(O)C3O)c2n1 (stereo not given)	> 100 µM	> 100 µM	> 100 µM	> 100 µM	> 100 µM	–	> 100 µM	–	> 100 µM	–	> 100 µM	> 100 µM	> 100 µM	> 100 µM	–
CSc1c(C#N)c(O)n(-c2ccc(C)cc2)c(=O)c1C#N	–	> 100 µM	> 100 µM	> 100 µM	> 100 µM	> 100 µM	–	> 100 µM	> 100 µM	> 100 µM	> 100 µM	–	> 100 µM	> 100 µM	> 100 µM
NC(=O)c1cc(-c2ccc(-n3ccnc3)cc2)n[nH]c1=O	> 100 µM	–	> 100 µM	> 100 µM	–	> 100 µM	> 100 µM	–	> 100 µM	> 100 µM	> 100 µM	> 100 µM	> 100 µM	> 100 µM	> 100 µM
O=C1CSC(/C(=C/c2ccccc2)c2nc3ccccc3[nH]2)=N1	> 100 µM	–	> 100 µM	> 100 µM	> 100 µM	> 100 µM	> 100 µM	–	74.4 µM	–	> 100 µM	> 100 µM	> 100 µM	> 100 µM	–
C=CCC1C(=O)C(C(=O)OC)N2CCc3c([nH]c4ccccc34)C12 (stereo not given)	> 100 µM	> 100 µM	> 100 µM	> 100 µM	> 100 µM	> 100 µM	–	–	> 100 µM	–	> 100 µM	> 100 µM	> 100 µM	> 100 µM	–

SMILES	TGI [1]	TGI [2]	TGI [3]	TGI [4]	TGI [5]	TGI [6]	TGI [7]	TGI [8]	TGI [9]	TGI [10]	TGI [11]	TGI [12]	TGI [13]	TGI [14]	TGI [15]
O=C(O)CN=C(C(=NCC(=O)O)c1ccccc1)c1ccccc1	> 100 µM	> 100 µM	> 100 µM	> 100 µM	–	–	> 100 µM	> 100 µM	> 100 µM	> 100 µM	–	–	> 100 µM	> 100 µM	> 100 µM
CCCCCCCC(=O)OC[C@@H](C[As](=O)(O)O)OC(=O)CCCCCCC	32.9 µM	–	24.7 µM	20.3 µM	28.1 µM	37.6 µM	25.6 µM	–	19.9 µM	–	16.4 µM	9.55 µM	25.9 µM	84.4 µM	–
COC1(C(C)(C)C)C=C(C(C)(C)C)P(=O)(O)O1 (stereo not given)	> 100 µM	> 100 µM	> 100 µM	> 100 µM	> 100 µM	> 100 µM	> 100 µM	–	> 100 µM	> 100 µM	> 100 µM	–	> 100 µM	> 100 µM	–
Oc1[nH]c2ccccc2c1N=NC(=S)N1CCCCC1	3.83 µM	1.7 µM	6.64 µM	14.3 µM	10.8 µM	6.58 µM	5.97 µM	2.79 µM	7.83 µM	4.58 µM	1.77 µM	–	8.63 µM	9.75 µM	–
CN1C(OCc2ccccc2)c2c(ccc3c2OCO3)C2C=Cc3cc4c(cc3C21)OCO4 (stereo not given)	2.96 µM	1.97 µM	2.65 µM	1.58 µM	1.47 µM	2.3 µM	2.83 µM	–	2.84 µM	–	2.09 µM	1.05 µM	1.35 µM	2.98 µM	–
COC(=O)Nc1nc2ccc(Oc3ccc4nc(NC(=O)OC)[nH]c4c3)cc2[nH]1	45.6 µM	0.744 µM	> 49.6 µM	–	> 100 µM	> 100 µM	> 100 µM	11 µM	10.9 µM	0.166 µM	> 54.4 µM	–	11.2 µM	> 100 µM	> 100 µM
O=C(O)c1c[nH]c2c(=O)[nH]cnc12	> 100 µM	> 100 µM	> 100 µM	> 100 µM	> 100 µM	> 100 µM	> 100 µM	–	–	–	> 100 µM	> 100 µM	> 100 µM	> 100 µM	–
CC1(C)C(c2ccccc2)=NN(O)c2ccccc21	> 100 µM	> 100 µM	> 100 µM	> 100 µM	> 100 µM	–	–	–	> 100 µM	–	> 100 µM	> 100 µM	> 100 µM	> 100 µM	–
CCN(CC)CCNc1ccc2ncn3c4c(OC)ccc(OC)c4c(=O)c1c23	> 100 µM	> 100 µM	70.9 µM	17.2 µM	–	31.2 µM	> 100 µM	29.1 µM	35.6 µM	–	–	27.1 µM	18.2 µM	35.6 µM	–
CNC(=O)CCNC(=O)CCC(=O)N(C)C	> 100 µM	> 100 µM	> 100 µM	> 100 µM	> 100 µM	–	> 100 µM	> 100 µM	> 100 µM	> 100 µM	–	–	> 100 µM	–	–
CC1=CCC2(C#N)CCC1C2O (stereo not given)	> 100 µM	> 100 µM	> 100 µM	> 100 µM	> 100 µM	–	> 100 µM	–	> 100 µM	–	> 100 µM	> 100 µM	–	> 100 µM	–
C=C(C)C#CC(O)(C(=O)OC1CCN(C)CC1)C(C)C (stereo not given)	> 100 µM	> 100 µM	> 100 µM	> 100 µM	> 100 µM	–	> 100 µM	> 100 µM	> 100 µM	> 100 µM	> 100 µM	> 100 µM	> 100 µM	> 100 µM	–
O=C(C/C(=N\NC(=O)C[n+]1ccccc1)C(=O)Nc1nc2ccc([N+](=O)[O-])cc2s1)CC(c1ccccc1)c1c(O)c2ccccc2oc1=O (stereo not given)	> 100 µM	> 100 µM	> 100 µM	> 100 µM	> 100 µM	> 100 µM	> 100 µM	–	–	–	> 100 µM	> 100 µM	> 100 µM	> 100 µM	–
C=C[C@@]1(C)CCC2(O)C(CCC3C2(C)CCC[C@@]3(C)COC(=O)CC(=O)OC)C1 (stereo not given in full)	34 µM	32.5 µM	> 100 µM	55.3 µM	33.2 µM	–	> 100 µM	–	32.2 µM	–	71.7 µM	> 100 µM	31.7 µM	–	–
COc1ccc(-c2cnoc2-c2ccc(OC)c(OC)c2)cc1OC	20.5 µM	7.54 µM	6.9 µM	15 µM	11.1 µM	21.3 µM	> 74.2 µM	–	11.4 µM	–	9.53 µM	13.4 µM	> 37.5 µM	20.7 µM	–
O=C(CC(=O)C(=O)Nc1ccccc1)CC(c1ccccc1)c1c(O)c2ccccc2oc1=O (stereo not given)	–	> 100 µM	> 100 µM	> 100 µM	> 100 µM	> 100 µM	> 100 µM	–	–	–	> 100 µM	> 100 µM	> 100 µM	> 100 µM	–
Cc1cccc(-n2c(C)nc3ccc(NC4OC(CO)C(O)C(O)C4O)cc3c2=O)c1 (stereo not given)	> 100 µM	> 100 µM	> 100 µM	> 100 µM	> 100 µM	–	> 100 µM	> 100 µM	> 100 µM	> 100 µM	> 100 µM	–	> 100 µM	> 100 µM	> 100 µM
O=C1c2cccc3cc([N+](=O)[O-])cc(c23)C(=O)N1NC1=NCCN1	> 100 µM	> 100 µM	> 100 µM	> 100 µM	> 100 µM	> 100 µM	> 100 µM	–	> 100 µM	–	> 100 µM	> 100 µM	> 100 µM	> 100 µM	–
